Test results from patent US6858638B2, “Substituted indazoles, compositions containing them, method of production and use” (Aventis Pharma S.A., priority 2002, dated 2005).

Assays:
Format in all cases: biochemical
Aurora2 kinase = biological target: T1, Aurora2 kinase (Homo sapiens, UniProt O14965); assay: Aurora2 kinase radioactivity scintillation assay using nickel chelate (NuMA substrate); conditions: 10 μM; read-out: Aurora2 % inhib at 10 μM
T1 construct: A complete recombinant Aurora2 enzyme; His tag (N); made in house; host or cells: E. coli
T1 sequence (O14965 1-403): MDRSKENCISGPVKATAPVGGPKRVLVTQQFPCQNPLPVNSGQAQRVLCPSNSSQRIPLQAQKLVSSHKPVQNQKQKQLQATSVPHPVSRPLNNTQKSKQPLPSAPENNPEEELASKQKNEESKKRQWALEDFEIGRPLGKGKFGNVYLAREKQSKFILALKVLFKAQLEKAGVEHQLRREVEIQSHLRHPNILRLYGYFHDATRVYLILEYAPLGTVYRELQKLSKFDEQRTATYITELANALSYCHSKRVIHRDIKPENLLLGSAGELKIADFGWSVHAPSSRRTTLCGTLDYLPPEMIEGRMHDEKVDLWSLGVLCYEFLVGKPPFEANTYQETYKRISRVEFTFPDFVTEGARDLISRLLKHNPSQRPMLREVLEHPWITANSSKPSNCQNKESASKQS
Outline: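 Read-out is 33P incorporation into His-NuMA (Q1687-H2101, 0.5 μM) captured on nickel chelate, after 30 min at 37 °C with 0.02 μM His-Aurora2 and 1 μM ATP. Expressed as percentage inhibition of uncompounded control activity, background subtracted.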

human KDR enzyme = biological target: T2, human KDR enzyme (Homo sapiens, UniProt P35968); assay: KDR substrate (PLCγ) phosphorylation, scintillation assay; conditions: 10 μM; read-out: KDR % inhib at 10 μM
T2 construct: The cytoplasmic domain of the human KDR enzyme; GST; made in house; host or cells: SF21 insect cells (baculovirus)
Outline: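 Values are percent inhibition relative to the compound-free control, read by scintillation counting of 33P incorporation after EDTA stop. Baculovirus/SF21-expressed GST-KDR cytoplasmic domain (100 ng) acted for 1 h at 37 °C in pH 7.2 MOPS kinase buffer. The substrate was GST-PLCγ SH2-SH3 (2 μg), added with γ33P-ATP and 2 μM unlabeled ATP.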

[1] = biological target: T3, human IGF1R cytoplasmic domain (Homo sapiens, UniProt P08069); assay: IGF1R autophosphorylation inhibition, time resolved fluorescence (HTRF) assay; conditions: 10 μM; read-out: IGF1R % inhib at 10 μM
T3 construct: The human IGF1R cytoplasmic domain was cloned; made in house; host or cells: SF21 insect cells (baculovirus)
Outline: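 GST-tagged human IGF1R cytoplasmic domain from SF21 cells incubated with compound in 50 mM Hepes pH 7.5, 5 mM MnCl2, 50 mM NaCl, […] ATP. Autophosphorylation detected by HTRF (Eu-K anti-phosphotyrosine, XL665 anti-GST) after EDTA/KF stop; percentage inhibition versus no-compound control.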

T3 sequence (P08069 960-1367 limits assumed): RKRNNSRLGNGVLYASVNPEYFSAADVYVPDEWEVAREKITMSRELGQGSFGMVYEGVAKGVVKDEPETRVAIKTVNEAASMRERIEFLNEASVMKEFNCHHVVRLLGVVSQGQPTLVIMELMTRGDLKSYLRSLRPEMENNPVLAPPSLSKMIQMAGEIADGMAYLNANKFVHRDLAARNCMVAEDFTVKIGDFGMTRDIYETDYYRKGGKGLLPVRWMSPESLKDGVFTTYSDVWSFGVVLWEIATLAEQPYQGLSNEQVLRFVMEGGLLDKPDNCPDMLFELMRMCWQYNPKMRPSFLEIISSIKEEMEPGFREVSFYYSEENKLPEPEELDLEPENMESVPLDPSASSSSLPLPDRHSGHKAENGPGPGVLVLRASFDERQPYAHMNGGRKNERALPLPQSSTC
T2 sequence (P35968 786-1356 limits assumed): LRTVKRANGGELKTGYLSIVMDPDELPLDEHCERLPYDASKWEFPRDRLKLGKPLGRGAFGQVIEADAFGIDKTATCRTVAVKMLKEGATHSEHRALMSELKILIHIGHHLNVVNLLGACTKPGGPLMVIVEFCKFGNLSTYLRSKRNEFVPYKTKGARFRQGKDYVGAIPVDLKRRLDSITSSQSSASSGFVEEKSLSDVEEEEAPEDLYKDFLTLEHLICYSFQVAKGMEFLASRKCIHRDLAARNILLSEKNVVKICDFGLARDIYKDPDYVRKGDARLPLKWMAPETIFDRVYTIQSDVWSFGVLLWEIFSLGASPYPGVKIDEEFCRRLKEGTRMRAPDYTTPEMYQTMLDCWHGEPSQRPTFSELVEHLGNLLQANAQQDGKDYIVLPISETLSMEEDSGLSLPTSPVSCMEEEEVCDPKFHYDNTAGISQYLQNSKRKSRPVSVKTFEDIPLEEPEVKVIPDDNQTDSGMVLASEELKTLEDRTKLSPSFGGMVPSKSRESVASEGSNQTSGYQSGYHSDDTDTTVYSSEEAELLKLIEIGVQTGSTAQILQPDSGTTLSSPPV

Compound | inhibition at 10 µM (Aurora2 kinase) | inhibition at 10 µM (human KDR enzyme) | inhibition at 10 µM [1]
O=S(=O)(Nc1ccc2[nH]nc(-c3ccccc3)c2c1)c1cccs1 [Example 110, N-(3-Phenyl-1H-indazol-5-yl)-thiophene-2-sulfonamide] | 100% | 91% | 80%
O=S(=O)(Nc1ccc2[nH]nc(-c3ccccc3)c2c1)c1ccccc1 [Example 112, N-(3-Phenyl-1H-indazol-5-yl)benzenesulfonamide] | 100% | 93% | 84%
O=S(=O)(Nc1ccc2[nH]nc(-c3ccccc3)c2c1)c1ccc(F)cc1 [Example 117, 4-Fluoro-N-(3-phenyl-1H-indazol-5-yl)-benzenesulfonamide] | 100% | 93% | 56%
COc1ccc(OC)c(S(=O)(=O)Nc2ccc3[nH]nc(-c4ccccc4)c3c2)c1 [Example 131, 2,5-Dimethoxy-N-(3-phenyl-1H-indazol-5-yl)-benzenesulfonamide] | 97% | 95% | 51%
Cc1cccc(S(=O)(=O)Nc2ccc3[nH]nc(-c4ccccc4)c3c2)c1 [Example 138, 3-Methyl-N-(3-phenyl-1H-indazol-5-yl)-benzenesulfonamide] | 99% | 92% | 72%
COc1cccc(S(=O)(=O)Nc2ccc3[nH]nc(-c4ccccc4)c3c2)c1 [Example 156, 3-Methoxy-N-(3-phenyl-1H-indazol-5-yl)-benzenesulfonamide] | 99% | 94% | 68%
O=S(=O)(Nc1ccc2[nH]nc(-c3ccccc3)c2c1)c1cc(F)cc(F)c1 [Example 158, 3,5-Difluoro-N-(3-phenyl-1H-indazol-5-yl)-benzenesulfonamide] | 100% | 96% | 68%

Next, values leading:

inhibition at 10 µM (Aurora2 kinase) | inhibition at 10 µM (human KDR enzyme) | inhibition at 10 µM [1] | Compound
100% | 88% | 81% | O=[N+]([O-])c1ccccc1S(=O)(=O)Nc1ccc2[nH]nc(-c3ccccc3)c2c1 [Example 113, 2-Nitro-N-(3-phenyl-1H-indazol-5-yl)benzenesulfonamide]
100% | 96% | 77% | Cc1ccccc1S(=O)(=O)Nc1ccc2[nH]nc(-c3ccccc3)c2c1 [Example 132, 2-Methyl-N-(3-phenyl-1H-indazol-5-yl)-benzenesulfonamide]
67% | 96% | 40% | O=C(O)c1cccc(S(=O)(=O)Nc2ccc3[nH]nc(-c4ccccc4)c3c2)c1 [Example 133, 3-(3-Phenyl-1H-indazol-5-ylsulfamoyl)benzoic acid]
100% | 90% | 81% | O=S(=O)(Nc1ccc2[nH]nc(-c3ccccc3)c2c1)c1ccccc1F [Example 134, 2-Fluoro-N-(3-phenyl-1H-indazol-5-yl)-benzenesulfonamide]
100% | 91% | 65% | O=S(=O)(Nc1ccc2[nH]nc(-c3ccccc3)c2c1)c1ccc(Cl)s1 [Example 135, 5-Chloro-N-(3-phenyl-1H-indazol-5-yl)thiophene-2-sulfonamide]
92% | 93% | 67% | O=S(=O)(Nc1ccc2[nH]nc(-c3ccccc3)c2c1)c1ccc(F)c(F)c1 [Example 152, 3,4-Difluoro-N-(3-phenyl-1H-indazol-5-yl)-benzenesulfonamide]
95% | 96% | 75% | N#Cc1cccc(S(=O)(=O)Nc2ccc3[nH]nc(-c4ccccc4)c3c2)c1 [Example 154, 3-Cyano-N-(3-phenyl-1H-indazol-5-yl)-benzenesulfonamide]
